Assay results reported in ChEMBL document CHEMBL1143710, “Synthesis, antifungal and antimicrobial activity of alkylphospholipids” (Bioorg Med Chem, 2007).
In brackets after ≈: the same amount, converted by molar mass. Activity calls are given as the source filed them. No cut-off for these calls is given here.

How the values were obtained:
[1] = tested on: Cryptococcus neoformans; test: Antifungal activity against Cryptococcus neoformans ATCC 90112; type: functional
[2] = tested on: Candida albicans; test: Antifungal activity against Candida albicans ATCC 10231; type: functional
[3] = Toxicity assessed as haemolytic activity against human erythrocytes at 17.5 uM; type: cell-based, Erythrocyte; conditions: read-out: Activity
[4] = Toxicity assessed as haemolytic activity against human erythrocytes at 350 uM; type: cell-based, Erythrocyte; conditions: read-out: Activity
[5] = tested on: Staphylococcus aureus; test: Antibacterial activity against methicillin-resistant Staphylococcus aureus after 24 hrs; type: functional
[6] = Toxicity assessed as haemolytic activity against human erythrocytes at 175 uM; type: cell-based, Erythrocyte; conditions: read-out: Activity
[7] = Toxicity assessed as haemolytic activity against human erythrocytes at 44 uM; type: cell-based, Erythrocyte; conditions: read-out: Activity
[8] = Toxicity assessed as haemolytic activity against human erythrocytes at 3.5 uM; type: cell-based, Erythrocyte; conditions: read-out: Activity
[9] = tested on: Escherichia coli; test: Antibacterial activity against Escherichia coli ATCC 25922 after 24 hrs; type: functional; conditions: ATCC 25922, 24 h
[10] = Toxicity assessed as haemolytic activity against human erythrocytes at 88 uM; type: cell-based, Erythrocyte; conditions: read-out: Activity
[11] = tested on: Staphylococcus aureus; test: Antibacterial activity against Staphylococcus aureus ATCC 25923 after 24 hrs; type: functional; conditions: ATCC 25923, 24 h
[12] = tested on: Enterococcus; test: Antibacterial activity against vancomycin-resistant Enterococcus ATCC 51299 after 24 hrs; type: functional; conditions: ATCC 51299, 24 h
[13] = target: T1, Phospholipase B (Cryptococcus neoformans) (UniProt Q9P8P2); test: Inhibition of phospholipase B activity of Cryptococcus neoformans var. grubi H99 secreted PLB1 by radiometric assay method
T1 sequence (whole entry): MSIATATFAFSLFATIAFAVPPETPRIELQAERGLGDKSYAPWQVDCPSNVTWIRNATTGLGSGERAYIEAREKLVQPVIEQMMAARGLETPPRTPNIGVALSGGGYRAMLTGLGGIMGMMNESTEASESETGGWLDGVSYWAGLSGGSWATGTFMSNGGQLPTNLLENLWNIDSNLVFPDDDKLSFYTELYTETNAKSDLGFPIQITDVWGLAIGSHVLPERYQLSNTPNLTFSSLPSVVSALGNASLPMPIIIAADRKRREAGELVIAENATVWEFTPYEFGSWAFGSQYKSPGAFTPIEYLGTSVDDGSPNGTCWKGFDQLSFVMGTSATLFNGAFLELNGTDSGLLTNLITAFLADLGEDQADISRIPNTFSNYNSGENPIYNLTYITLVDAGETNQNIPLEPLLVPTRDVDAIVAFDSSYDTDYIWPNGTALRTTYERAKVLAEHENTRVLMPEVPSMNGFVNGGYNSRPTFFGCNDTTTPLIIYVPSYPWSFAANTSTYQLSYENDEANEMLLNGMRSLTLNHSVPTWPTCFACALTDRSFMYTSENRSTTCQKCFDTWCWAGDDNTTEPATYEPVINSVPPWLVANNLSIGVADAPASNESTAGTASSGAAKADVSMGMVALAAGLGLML

[14] = target: T1, Phospholipase B (Cryptococcus neoformans); test: Inhibition of […] activity of Cryptococcus neoformans var. grubi H99 secreted PLB1 at 25 uM by radiometric assay method
[15] = target: T1, Phospholipase B (Cryptococcus neoformans); test: Inhibition of lysophosphatidic acid acyltransferase activity of Cryptococcus neoformans var. grubi H99 secreted PLB1 at 250 uM by radiometric assay method
[16] = target: T1, Phospholipase B (Cryptococcus neoformans); test: Inhibition of […] activity of Cryptococcus neoformans var. grubi H99 secreted PLB1 at 250 uM by radiometric assay method
[17] = target: T1, Phospholipase B (Cryptococcus neoformans); test: Inhibition of lysophosphatidic acid acyltransferase activity of Cryptococcus neoformans var. grubi H99 secreted PLB1 at 25 uM by radiometric assay method
[18] = tested on: Pseudomonas aeruginosa; test: Antibacterial activity against Pseudomonas aeruginosa ATCC 27853 after 24 hrs; type: functional; conditions: ATCC 27853, 24 h
[19] = tested on: Streptococcus pneumoniae; test: Antibacterial activity against Streptococcus pneumoniae ATCC 46919 after 24 hrs; type: functional; conditions: ATCC 46919, 24 h

Row | SMILES | MIC [1] | MIC [2] | hemolysis at 17.5 µM [3] | hemolysis at 350 µM [4] | MIC [5] | hemolysis at 175 µM [6] | hemolysis at 44 µM [7] | hemolysis at 3.5 µM [8] | MIC [9] | hemolysis at 88 µM [10] | MIC [11] | MIC [12] | Activity [13] | Activity [14] | Activity [15] | Activity [16] | Activity [17] | MIC [18] | MIC [19]
1 | C[C@@H]1[C@H](O)[C@@H](C)/C=C/C=C/C=C/C=C/C=C/C=C/C=C/[C@H](O[C@@H]2O[C@H](C)[C@@H](O)[C@H](N)[C@@H]2O)C[C@@H]2O[C@](O)(C[C@@H](O)C[C@@H](O)[C@H](O)CC[C@@H](O)C[C@@H](O)CC(=O)O[C@H]1C)C[C@H](O)[C@H]2C(=O)O [AMPHOTERICIN B] | 0.54 µM (≈ 0.499 µg/mL) | 0.54 µM (≈ 0.499 µg/mL) |  |  |  |  |  |  |  |  |  |  |  |  |  |  |  |  | 
2 | CCCCCCCCCCCCCCCCCCOCC(O)COP(=O)([O-])OCC[N+](C)(C)C (stereo unspecified) | 88 µM (≈ 44.9 µg/mL) | > 350 µM | 0% | 100% | 11 µM (≈ 5.61 µg/mL) | 100% | 10% | 0% | > 350 µM | 86% | 22 µM (≈ 11.2 µg/mL) | 11 µM (≈ 5.61 µg/mL) |  |  |  |  |  |  | 
3 | CN[C@H](CC(C)C)C(=O)N[C@H]1C(=O)N[C@@H](CC(N)=O)C(=O)N[C@H]2C(=O)N[C@H]3C(=O)N[C@H](C(=O)N[C@H](C(=O)O)c4cc(O)cc(O)c4-c4cc3ccc4O)[C@H](O)c3ccc(c(Cl)c3)Oc3cc2cc(c3O[C@@H]2O[C@H](CO)[C@@H](O)[C@H](O)[C@H]2O[C@H]2C[C@](C)(N)[C@H](O)[C@H](C)O2)Oc2ccc(cc2Cl)[C@H]1O [VANCOMYCIN] |  |  |  |  |  |  |  |  |  |  |  | 0.7 µM (≈ 1.01 µg/mL) |  |  |  |  |  |  | 
4 | CCCCCCCC/C=C/CCCCCCCCOP(=O)([O-])OCC[N+](C)(C)C [ELAIDYLPHOSPHOCHOLINE] | 2.75 µM (≈ 1.19 µg/mL) | 2.75 µM (≈ 1.19 µg/mL) | 0% | 100% | 22 µM (≈ 9.54 µg/mL) | 100% | 0% | 0% | > 350 µM | 50% | 22 µM (≈ 9.54 µg/mL) | 22 µM (≈ 9.54 µg/mL) |  |  |  |  |  |  | 
5 | CCCCCCCCCCCCCCCCCC(=O)NCC(COP(=O)([O-])OCC[N+](C)(C)C)OC (stereo unspecified) | 22 µM (≈ 11.8 µg/mL) | 5.5 µM (≈ 2.95 µg/mL) | 0% | 100% | 11 µM (≈ 5.9 µg/mL) | 100% | 5% | 0% | > 350 µM | 56% | 44 µM (≈ 23.6 µg/mL) | 22 µM (≈ 11.8 µg/mL) |  |  |  |  |  |  | 
6 | CCCCCCCCCCCCOP(=O)([O-])OCC[N+](C)(C)C | 175 µM (≈ 61.5 µg/mL) | 350 µM (≈ 123 µg/mL) | 0% |  |  | 0% | 0% | 0% |  | 0% |  |  | inactive | inactive |  |  |  |  | 
7 | CCCCCCCCCCCCCCCCCCOP(=O)([O-])OCC[P+](C)(C)C | 2.75 µM (≈ 1.24 µg/mL) | 2.75 µM (≈ 1.24 µg/mL) | 2% |  |  | 100% | 40% | 0% |  | 97% |  |  |  | inactive | Active | Active |  |  | 
8 | CCCCC(CC)CNC(=O)CCCCCOP(=O)([O-])OCC[N+](C)(C)C (stereo unspecified) | > 350 µM | > 350 µM | 0% |  | > 350 µM | 0% | 0% | 0% | > 350 µM | 0% | > 350 µM | > 350 µM |  |  |  |  |  |  | 
9 | CC(C)[C@H](NC(=O)CCCCCOP(=O)([O-])OCC[N+](C)(C)C)C(N)=O | > 350 µM | > 350 µM | 0% | 0% |  | 0% | 0% | 0% |  | 0% |  |  |  |  |  |  |  |  | 
10 | CCCCCCCCCCCCCCCCCCOP(=O)([O-])OCC[N+](C)(C)C [OCTADECYLPHOSPHONOCHOLINE] | 1.4 µM (≈ 0.61 µg/mL) | 1.4 µM (≈ 0.61 µg/mL) | 0% | 100% | 22 µM (≈ 9.58 µg/mL) | 100% | 60% | 0% | > 350 µM | 92% | 22 µM (≈ 9.58 µg/mL) |  |  | inactive | Active | Active |  |  | 
11 | CCCCCCCCCNC(=O)CCCCCOP(=O)([O-])OCC[N+](C)(C)C | > 350 µM | > 350 µM | 0% |  | > 350 µM | 0% | 0% | 0% | > 350 µM | 0% | > 350 µM | > 350 µM | inactive | inactive |  |  |  |  | 
12 | C[N+](C)(C)CCOP(=O)([O-])OCCCCCC(=O)NC12CC3CC(CC(C3)C1)C2 | > 350 µM | > 350 µM |  |  |  |  |  |  |  |  |  |  |  |  |  |  |  |  | 
13 | CCCCCCCC/C=C\CCCCCCCCCCCCOP(=O)([O-])OCC[N+](C)(C)C [ERUFOSINE] | 22 µM (≈ 10.8 µg/mL) | 44 µM (≈ 21.5 µg/mL) | 0% | 100% | 22 µM (≈ 10.8 µg/mL) | 90% | 0% | 0% | > 350 µM | 15% | > 350 µM | 11 µM (≈ 5.39 µg/mL) |  |  |  |  |  |  | 
14 | CCCCCCCCCCCCCCCCCCOCC(COP(=O)([O-])OCC[N+](C)(C)C)OC (stereo unspecified) [EDELFOSINE] | > 350 µM | 5.5 µM (≈ 2.88 µg/mL) | 0% | 100% | 11 µM (≈ 5.76 µg/mL) | 100% | 13% | 0% | > 350 µM | 83% | 44 µM (≈ 23 µg/mL) |  |  |  |  |  |  |  | 
15 | CCCCCCCCCOC(=O)CCCCCOP(=O)([O-])OCC[N+](C)(C)C | 175 µM (≈ 74.1 µg/mL) | > 350 µM | 0% |  |  | 0% | 0% | 0% |  | 0% |  |  |  |  |  |  |  |  | 
16 | CCCCCCCCCCCCCCCCOP(=O)([O-])OCC[N+](C)(C)C [MILTEFOSINE] | 2.75 µM (≈ 1.12 µg/mL) | 5.5 µM (≈ 2.24 µg/mL) | 0% | 100% | 22 µM (≈ 8.97 µg/mL) | 95% | 5% | 0% | > 350 µM | 25% | 44 µM (≈ 17.9 µg/mL) | 44 µM (≈ 17.9 µg/mL) |  | inactive | Active | Active | Active | > 600 µM | 11 µM (≈ 4.48 µg/mL)
17 | CC1(C)S[C@@H]2[C@H](NC(=O)[C@H](N)c3ccc(O)cc3)C(=O)N2[C@H]1C(=O)O [AMOXICILLIN] |  |  |  |  |  |  |  |  | 22 µM (≈ 8.04 µg/mL) |  | 0.7 µM (≈ 0.256 µg/mL) |  |  |  |  |  |  |  | 
